In patent US6677466B1, “Method for stabilizing hydrogen peroxide” (DSM Fine Chemicals Austria NFG GmbH & Co KG, priority 1999, dated 2004):

Experiment: O2 evolution from [Mn2O3{Me3tacn}2](PF6)2-catalysed decomposition of H2O2 with stabilizer
Format: physicochemical
Procedure: A 50% strength aqueous solution of H2O2 (304 mg; 4.46 mmol) was added to 454 mg (4.46 mmol) of methyl pyruvate and to 535 mg (4.46 mmol) of glyoxylic methyl ester methyl hemiacetal, respectively. In the case of methyl pyruvate, a marked evolution of heat was discovered during the addition. After one hour, the H2O2/α-keto ester mixture was mixed with 1 ml of solvent and added to a suspension of 1.0 mg of [Mn2O3{Me3tacn}2](PF6)2 catalyst in 4 ml of solvent. The suspension was introduced into a 50 ml flask which was maintained at room temperature in a water bath. As a result of this addition, in cases where undissolved catalyst was still present, the catalyst dissolved completely.
As a comparison, a suspension of 1.0 mg of [Mn2O3{Me3tacn}2](PF6)2 catalyst in 4 ml of solvent was combined with a 50% strength aqueous solution of H2O2 (304 mg; 4.46 mmol) and 1 ml of solvent without stabilizer.
The amount of oxygen which was evolved from the decomposition of the hydrogen peroxide was determined as a function of time using a Brooks meter, which permitted measurement of the gas flow and the total amount of evolved gas.

COC(=O)C(C)=O [methyl pyruvate]
O2 evolution V(O2) (Vmax(O2)*100%) (solv. acetic acid, t 1 min): 0% | O2 evolution V(O2) (Vmax(O2)*100%) (solv. acetic acid, t 4 min): 3% | O2 evolution V(O2) (Vmax(O2)*100%) (solv. acetic acid, t 5 min): 8% | O2 evolution V(O2) (Vmax(O2)*100%) (solv. acetic acid, t 10 min): 20% | O2 evolution V(O2) (Vmax(O2)*100%) (solv. acetic acid, t 15 min): 24% | O2 evolution V(O2) (Vmax(O2)*100%) (solv. acetic acid, t 20 min): 24% | O2 evolution V(O2) (Vmax(O2)*100%) (solv. acetic acid, t 25 min): 24% | O2 evolution V(O2) (Vmax(O2)*100%) (solv. acetic acid, t 30 min): 24% | O2 evolution V(O2) (Vmax(O2)*100%) (solv. acetic acid, t 35 min): 24% | O2 evolution V(O2) (Vmax(O2)*100%) (solv. acetic acid, t 50 min): 24% | O2 evolution V(O2) (Vmax(O2)*100%) (solv. acetic acid, t 60 min): 24% | O2 evolution V(O2) (Vmax(O2)*100%) (solv. acetic acid, t 70 min): 24% | O2 evolution V(O2) (Vmax(O2)*100%) (solv. acetic acid, t 80 min): 24% | O2 evolution V(O2) (Vmax(O2)*100%) (solv. acetone, t 1 min): 0% | O2 evolution V(O2) (Vmax(O2)*100%) (solv. acetone, t 4 min): 0% | O2 evolution V(O2) (Vmax(O2)*100%) (solv. acetone, t 5 min): 0% | O2 evolution V(O2) (Vmax(O2)*100%) (solv. acetone, t 10 min): 0% | O2 evolution V(O2) (Vmax(O2)*100%) (solv. acetone, t 15 min): 0% | O2 evolution V(O2) (Vmax(O2)*100%) (solv. acetone, t 20 min): 0% | O2 evolution V(O2) (Vmax(O2)*100%) (solv. acetone, t 25 min): 0% | O2 evolution V(O2) (Vmax(O2)*100%) (solv. acetone, t 30 min): 0% | O2 evolution V(O2) (Vmax(O2)*100%) (solv. acetone, t 35 min): 0% | O2 evolution V(O2) (Vmax(O2)*100%) (solv. acetone, t 50 min): 6% | O2 evolution V(O2) (Vmax(O2)*100%) (solv. acetone, t 60 min): 12% | O2 evolution V(O2) (Vmax(O2)*100%) (solv. acetone, t 70 min): 20% | O2 evolution V(O2) (Vmax(O2)*100%) (solv. acetone, t 80 min): 28% | O2 evolution V(O2) (Vmax(O2)*100%) (solv. acetonitrile, t 1 min): 0% | O2 evolution V(O2) (Vmax(O2)*100%) (solv. acetonitrile, t 4 min): 0% | O2 evolution V(O2) (Vmax(O2)*100%) (solv. acetonitrile, t 5 min): 0% | O2 evolution V(O2) (Vmax(O2)*100%) (solv. acetonitrile, t 10 min): 3% | O2 evolution V(O2) (Vmax(O2)*100%) (solv. acetonitrile, t 15 min): 9% | O2 evolution V(O2) (Vmax(O2)*100%) (solv. acetonitrile, t 20 min): 18% | O2 evolution V(O2) (Vmax(O2)*100%) (solv. acetonitrile, t 25 min): 25% | O2 evolution V(O2) (Vmax(O2)*100%) (solv. acetonitrile, t 30 min): 30% | O2 evolution V(O2) (Vmax(O2)*100%) (solv. acetonitrile, t 35 min): 35% | O2 evolution V(O2) (Vmax(O2)*100%) (solv. acetonitrile, t 50 min): 38% | O2 evolution V(O2) (Vmax(O2)*100%) (solv. acetonitrile, t 60 min): 38% | O2 evolution V(O2) (Vmax(O2)*100%) (solv. acetonitrile, t 70 min): 38% | O2 evolution V(O2) (Vmax(O2)*100%) (solv. acetonitrile, t 80 min): 38% | O2 evolution V(O2) (Vmax(O2)*100%) (solv. ethyl acetate, t 1 min): 0% | O2 evolution V(O2) (Vmax(O2)*100%) (solv. ethyl acetate, t 4 min): 0% | O2 evolution V(O2) (Vmax(O2)*100%) (solv. ethyl acetate, t 5 min): 0% | O2 evolution V(O2) (Vmax(O2)*100%) (solv. ethyl acetate, t 10 min): 6% | O2 evolution V(O2) (Vmax(O2)*100%) (solv. ethyl acetate, t 15 min): 9% | O2 evolution V(O2) (Vmax(O2)*100%) (solv. ethyl acetate, t 20 min): 9% | O2 evolution V(O2) (Vmax(O2)*100%) (solv. ethyl acetate, t 25 min): 9% | O2 evolution V(O2) (Vmax(O2)*100%) (solv. ethyl acetate, t 30 min): 9% | O2 evolution V(O2) (Vmax(O2)*100%) (solv. ethyl acetate, t 35 min): 9% | O2 evolution V(O2) (Vmax(O2)*100%) (solv. ethyl acetate, t 50 min): 9% | O2 evolution V(O2) (Vmax(O2)*100%) (solv. ethyl acetate, t 60 min): 9% | O2 evolution V(O2) (Vmax(O2)*100%) (solv. ethyl acetate, t 70 min): 9% | O2 evolution V(O2) (Vmax(O2)*100%) (solv. ethyl acetate, t 80 min): 9% | O2 evolution V(O2) (Vmax(O2)*100%) (solv. methanol, t 1 min): 1% | O2 evolution V(O2) (Vmax(O2)*100%) (solv. methanol, t 4 min): 2% | O2 evolution V(O2) (Vmax(O2)*100%) (solv. methanol, t 5 min): 2% | O2 evolution V(O2) (Vmax(O2)*100%) (solv. methanol, t 10 min): 2% | O2 evolution V(O2) (Vmax(O2)*100%) (solv. methanol, t 15 min): 2% | O2 evolution V(O2) (Vmax(O2)*100%) (solv. methanol, t 20 min): 2% | O2 evolution V(O2) (Vmax(O2)*100%) (solv. methanol, t 25 min): 2% | O2 evolution V(O2) (Vmax(O2)*100%) (solv. methanol, t 30 min): 2% | O2 evolution V(O2) (Vmax(O2)*100%) (solv. methanol, t 35 min): 2% | O2 evolution V(O2) (Vmax(O2)*100%) (solv. methanol, t 50 min): 2% | O2 evolution V(O2) (Vmax(O2)*100%) (solv. methanol, t 60 min): 2% | O2 evolution V(O2) (Vmax(O2)*100%) (solv. methanol, t 70 min): 2% | O2 evolution V(O2) (Vmax(O2)*100%) (solv. methanol, t 80 min): 2% | O2 evolution V(O2) (Vmax(O2)*100%) (solv. t-butanol, t 1 min): 0% | O2 evolution V(O2) (Vmax(O2)*100%) (solv. t-butanol, t 4 min): 0% | O2 evolution V(O2) (Vmax(O2)*100%) (solv. t-butanol, t 5 min): 0% | O2 evolution V(O2) (Vmax(O2)*100%) (solv. t-butanol, t 10 min): 0% | O2 evolution V(O2) (Vmax(O2)*100%) (solv. t-butanol, t 15 min): 0% | O2 evolution V(O2) (Vmax(O2)*100%) (solv. t-butanol, t 20 min): 0% | O2 evolution V(O2) (Vmax(O2)*100%) (solv. t-butanol, t 25 min): 0% | O2 evolution V(O2) (Vmax(O2)*100%) (solv. t-butanol, t 30 min): 0% | O2 evolution V(O2) (Vmax(O2)*100%) (solv. t-butanol, t 35 min): 0% | O2 evolution V(O2) (Vmax(O2)*100%) (solv. t-butanol, t 50 min): 0% | O2 evolution V(O2) (Vmax(O2)*100%) (solv. t-butanol, t 60 min): 0% | O2 evolution V(O2) (Vmax(O2)*100%) (solv. t-butanol, t 70 min): 0% | O2 evolution V(O2) (Vmax(O2)*100%) (solv. t-butanol, t 80 min): 0%
